# Assay results as given in patent US7118731B2, “Drugs for the diagnosis of tissue reproductive activity or the treatment of proliferative diseases” (priority 2002, dated 2006).
# Where two headings read alike, the source gives them in different places. Marks after values point to notes of the source that are not given here.
# How the values were obtained:
# [1] = literature; cited from earlier work
# Walker tumor = test: scintigraphy of Walker tumor; format: in vivo; conditions: 37 MBq into tail vein, four hours after administration, Walker tumor in Wistar rats, FIG. 11
# Method: Malignant tumor, a typical proliferative disease, was observed by scintigraphy. Walker tumor cells were transplanted subcutaneously in the right inguinal region of Wistar rats. After the transplantation, 37 MBq of [I-123] ITDU was injected into the tail vein of rats that suffered a palpable tumor of about 20 mm that was suitable for scintigraphy. Each tumor-transplanted rat was anesthetized with Ravonal four hours after the administration of a drug. Then the rat was fixed in the face-up position and observed statically with gamma-camera imaging equipment (GCA-90B, Toshiba Corporation). Imaging was performed using a high-resolution medium-energy collimator to obtain images for 10 minutes with a resolution of 256×256.
# [2] = in vivo label stability, accumulation of free iodine in thyroid gland (Example 17); conditions: 185 KBq into tail vein, 10 week old normal mice (C57BL/6), longer intervals, FIG. 8
# Method: To evaluate in vivo stability of deiodination against each radioactive iodine-labeled nucleic acid derivative, tests were conducted to study accumulation of free iodine in the thyroid gland of normal mice. A 185 KBq of each labeled compound was injected in each of 10 week old normal mice (C57BL/6) into the tail vein, and three animals were sacrificed and anatomized at intervals longer than in Example 16. Incorporation of radioactivity in the thyroid gland was measured with an automatic well-type gamma counter (ARC-300, Aloka Co., Ltd.). Incorporated radioactivity in tissue (% ID) was calculated as the administrated per gram of the tissue, and represented in percentage, as shown in FIG. 8.
# L-M (TK-) cells = test: incorporation of labeled compounds into thymidine kinase-deficient L-M (TK-) cells; format: cell-based; conditions: 2 nmol labeled compound, one hour
# Method: (§1) L-M and L-M (TK-) cells in the logarithmic growth phase were planted on 24-well plates, each carrying 2.0×10^5 cells, and cultured overnight. Then 2 nmol of a radioactive iodine-labeled nucleic acid derivative was added and allowed to be incorporated in the cells for one hour. The cells were washed three times with an ice-cooled phosphate buffer solution, and dissolved in 0.1N NaOH, followed by determination of degree of radioactivity incorporated in the cells using an automatic well-type gamma counter (ARC-380 or ARC-300, Aloka Co., Ltd.). Measurements were analyzed to make evaluations based on the amount of the incorporated label molecules per unit weight of cellular proteins. […] ITdU and [I-125] […] IUR as a control.
# L-M cells = test: incorporation of labeled compounds into L-M cells; format: cell-based; conditions: for Incorporation, L-M: 2 nmol labeled compound, one hour, L-M cells; for thymidine kinase-dependent incorporation into cells: L-M versus L-M (TK-) cells; for (L-M)/{L-M(TK-)}: ratio of incorporation, L-M to L-M (TK-), T-test
# Method: as §1
# [3] = biological target: T1, E. coli-originating thymidine phospholylase (Escherichia coli, UniProt P07650); conditions: for 5-IU production rate: 0.5–12.0 nmol labeled compound, 0.0009–9.0 units enzyme, n = 3; for 5-IU production rate / metabolic stability of glycosidic bond compared with [I-125] IUR: 25° C.; for Relative activity (C—N glycosidic linkage cleavage): relative to [I-125]IUR = 1.00; for metabolic stability of glycosidic bond compared with [I-125] IUR: thymidine phospholylase
# Method: To the reaction liquid, 0.5–12.0 nmol of the labeled compound and 0.0009–9.0 units of a liquid enzyme (Sigma Corporation) was added and reacted at 25° C. for a fixed period of time, followed by treatment in a boiling water bath for 3 minutes to stop the reaction. […] The reaction liquid was subjected to centrifugal separation, and the supernatant was applied over a silica gel plate along with an authentic standard (5-iodouridine: IU) and a non-labeled parent compound. It was developed with a mixture of chloroform and isopropyl alcohol (3:1), and then the autoradiogram was measured with a bioimaging analyzer (BAS-1500, Fuji Photo Film Co., Ltd.). The area of interest was set to peak components of the Rf value corresponding to the authentic standard, and the amount of the resulting metabolite was calculated from its proportion in percentage. […] FITAU and [I-125] IMBAU, a reversed phase silica gel plate was used, and after development with a mixture of methanol and water (3:7), an autoradiogram was measured with a bioimaging analyzer (BAS-1500; Fuji Photo Film Co., Ltd.) similarly to the [I-125] IUR and others.
# thymidine kinase = test: in vitro phosphorylation activity by thymidine kinase (crude enzyme from LL/2 cells); format: biochemical, mouse; conditions: for phosphorylation activity attributed to thymidine kinase: crude enzyme from LL/2 cells; for Phosphorylated material production rate: crude enzyme from LL/2 mouse lung cancer cells, 2 nmole labeled compound, ATP, 37° C., n = 3
# Method: Liquid enzyme was extracted from a LL/2 mouse's lung cancer cell strain in the logarithmic growth phase according to the method of Wolcott R M and Colacino J M (Anal. Biochem 178, p.38–40 (1989)). To a reaction liquid containing ATP, which is a phosphate donor, 2 nmole of the label compound and the liquid enzyme were added and reacted at 37° C. for a fixed period of time. The reaction was stopped by adding 1 mL of a 100 mM lanthanum chloride/5 mM triethanolamine solution. Phosphorylated material was prepared by centrifugal separation to form a phosphate-metal complex, followed by measuring a radioactivity of the resulting precipitate with an automatic well-type gamma counter (ARC-380, Aloka Co., Ltd.). […] ITDU and [I-125] ITAU.
# [4] = in vivo label stability, accumulation of free iodine in thyroid gland (Example 16); conditions: 370 KBq into tail vein, 10 week old normal mice, FIG. 7
# Method: To evaluate in vivo label stability of [I-125] ITDU and [I-125] ITAU, tests were conducted to study the accumulation of free iodine in the thyroid gland in normal mice. […] For a control, in vivo distribution of [I-125] IUR was also observed. […] Incorporated radioactivity in tissue was calculated as the administrated dose per gram of the tissue per unit time, and represented in percentage, as shown in FIG. 7. […] ITDU and [I-125]
# [5] = biological target: T1, E. coli-originating thymidine phospholylase; conditions: for 5-iodouridine production rate: 2 nmole labeled compound, 9 units enzyme, n = 3; for 5-iodouridine production rate / metabolic stability of glycosidic bond compared with [I-125] IUR: 25° C.; for relative activity (C—N glycosidic bond cleavage): relative to [I-125]IUR = 1.00; for metabolic stability of glycosidic bond compared with [I-125] IUR: thymidine phospholylase
# Method: To the reaction liquid, 2 nmole of the labeled compound and 9 units of a liquid enzyme (Sigma Corporation) were added and reacted at 25° C. for a fixed period of time, and the reaction was stopped by treatment in a boiling water bath for 3 minutes. The reaction liquid was subjected to centrifugal separation, and the supernatant was applied over a thin layer silica gel plate along with an authentic standard (5-iodouridine: IU) and a non-labeled parent compound. It was developed with a mixture of chloroform and isopropyl alcohol (3:1), and then autoradiography was measured with a bioimaging analyzer (BAS-1500, Fuji Photo Film Co., Ltd.). The area of interest was set to peak components of the Rf value corresponding to the authentic standard, and the amount of the resulting metabolite was calculated from its proportion in percentage.
# [6] = in vivo accumulation in proliferating tissues of normal mice; conditions: 185 MBq through tail vein, normal mice (C57BL/6), FIG. 10
# Method: To evaluate the accumulation of each radioactive iodine-labeled nucleic acid derivative in proliferating tissues, tests were conducted to study in vivo distribution in normal mice. A 185 MBq of each labeled compound was injected in each of 10 week old normal mice (C57BL/6) through its tail vein, and three animals were sacrificed and anatomized at appropriate intervals. Incorporation of radioactivity in each tissue sample was measured with an automatic well-type gamma counter (ARC-300, Aloka Co., Ltd.). Incorporated radioactivity in tissue was calculated as the administrated dose per unit weight of the tissue, and represented in percentage (% ID/g).
# [7] = in vivo distribution of [I-125] ITDU in normal mice; conditions: 370 KBq into tail vein, FIG. 9
# Method: A 370 KBq of [I-125] ITDU was injected in each of 10 week old normal mice into the tail vein, and three animals were sacrificed and anatomized at appropriate intervals. Incorporation of radioactivity in each tissue sample was measured with an automatic well-type gamma counter (ARC-300, Aloka Co., Ltd.). Incorporated radioactivity in tissue was calculated as the administrated dose per gram of the tissue, and represented in percentage, as shown in FIG. 9.
# T1 sequence (P07650 whole entry): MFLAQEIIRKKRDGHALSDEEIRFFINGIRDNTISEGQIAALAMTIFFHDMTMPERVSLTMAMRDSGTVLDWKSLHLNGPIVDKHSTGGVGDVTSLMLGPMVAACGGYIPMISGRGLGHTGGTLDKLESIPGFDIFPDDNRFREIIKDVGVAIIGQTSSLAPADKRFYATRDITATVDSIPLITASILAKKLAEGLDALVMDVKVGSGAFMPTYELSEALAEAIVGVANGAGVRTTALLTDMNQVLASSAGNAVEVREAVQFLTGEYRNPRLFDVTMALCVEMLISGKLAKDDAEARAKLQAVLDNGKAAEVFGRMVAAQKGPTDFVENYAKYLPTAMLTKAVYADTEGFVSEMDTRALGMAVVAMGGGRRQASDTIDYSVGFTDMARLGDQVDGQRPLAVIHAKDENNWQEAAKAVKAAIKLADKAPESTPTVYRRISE
Structure (SMILES),stability in vivo [1],accumulated radioactivity in the thyroid gland (in vivo label stability) [2],"Incorporation, L-M (TK−) (L-M (TK-) cells) [pmol/mg protein/h]","Incorporation, L-M (L-M cells) [pmol/mg protein/h]",thymidine kinase-dependent incorporation into cells (L-M cells),(L-M)/{L-M(TK-)} (L-M cells),5-IU production rate [3] [pmol/units/0.5 h],Relative activity (C—N glycosidic linkage cleavage) [3],relative activity (C—N glycosidic bond cleavage) [5],also measured
O=c1[nH]c(=O)n([C@@H]2O[C@H](CO)[C@@H](O)[C@@H]2F)cc1I [2′-fluoro-5-iodoarabinouridine],high stability in vivo,,,,,,,,,
Cc1cn([C@H]2C[C@H](F)[C@@H](CO)O2)c(=O)[nH]c1=O [3′-deoxy-3′-fluorothymidine],high stability in vivo,,,,,,,,,
O=c1[nH]c(=O)n([C@H]2C[C@H](O)[C@@H](CO)O2)cc1I [5-iodo-deoxyuridine],decomposed rapidly in vivo,,,,,,,,,
"O=c1[nH]c(=O)n([C@H]2C[C@H](O)[C@@H](CO)S2)cc1[123I] [[I-123] ITDU, [I-123]-5-iodo-4′-thio-2′-deoxyuridine]",,,,,,,,,,scintigraphic imaging of transplanted tumor (Walker tumor): clear imaging of transplanted tumors
"O=c1[nH]c(=O)n([C@@H]2S[C@H](CO)[C@@H](O)[C@@H]2F)cc1[125I] [[I-125] FITAU, [I-125]-5-iodo-1-(2-deoxy-2-fluoro-4-thio-β-D-arabinopentofuranosyl)uracil]",,significantly smaller than that from the control [I-125] IUR,0.21 ± 0.05,0.34 ± 0.05,incorporated in cells in a thymidine kinase dependent way,1.62***,0.5 ± 0.1,<0.00001,,metabolic stability of glycosidic bond compared with [I-125] IUR [3]: still stabler than [I-125] IUR
"Cn1c(=O)c([125I])cn([C@@H]2O[C@H](CO)[C@@H](O)[C@@H]2Br)c1=O [[I-125] IMBAU, [I-125]-5-iodo-1-methyl-(2-deoxy-2-bromo-β-D-arabinopentofuranosyl)uracil]",,significantly smaller than that from the control [I-125] IUR,,,,,0.0,0.0,,stability under heat treatment ([3]; boiling water bath for 3 minutes used to stop the reaction): unstable under heat treatment; metabolic stability of glycosidic bond compared with [I-125] IUR [3]: still stabler than [I-125] IUR
"O=c1[nH]c(=O)n(C2S[C@H](CO)[C@@H](O)[C@@H]2O)cc1[125I] (stereo partly drawn) [[I-125] ITAU, [I-125]-5-iodo-1-(4-thio-D-arabinofuranosyl)uracil]",,significantly smaller than that from the control [I-125] IUR,1.20 ± 0.20,1.68 ± 0.28,,1.40**,514.8 ± 367.0,<0.01,< 0.01,phosphorylation activity attributed to thymidine kinase (thymidine kinase): confirmed; Phosphorylated material production rate (thymidine kinase): 13.6 ± 6.6 p mole/mg protein/h; accumulated radioactivity in the thyroid gland (in vivo label stability) [4]: significantly smaller than that from the control [I-125] IUR; 5-iodouridine production rate [5]: 524.3 ± 373.8 p mole/units/30 min; metabolic stability of glycosidic bond compared with [I-125] IUR [5]: stabler than 5-iododeoxyuridine
"O=c1[nH]c(=O)n([C@H]2C[C@H](O)[C@@H](CO)S2)cc1[125I] [[I-125] ITDU, [I-125]-5-iodo-4′-thio-2′-deoxyuridine]",,significantly smaller than that from the control [I-125] IUR,3.94 ± 0.63,10.90 ± 1.48,incorporated in cells in a thymidine kinase dependent way,2.77*,3778.7 ± 692.0,,0.03,"accumulation in proliferating tissues (% ID/g) [6]: accumulated in large amounts particularly in the thymus; phosphorylation activity attributed to thymidine kinase (thymidine kinase): confirmed; Phosphorylated material production rate (thymidine kinase): 1182.7 ± 100.1 p mole/mg protein/h; accumulated radioactivity in the thyroid gland (in vivo label stability) [4]: significantly smaller than that from the control [I-125] IUR; 5-iodouridine production rate [5]: 4075.9 ± 736.4 p mole/units/30 min; metabolic stability of glycosidic bond compared with [I-125] IUR [5]: stabler than 5-iododeoxyuridine; accumulated radioactivity in proliferating tissues (thymus, small intestine) versus non-proliferating tissues (brain, liver, muscle) [7]: certainly higher than that in non-proliferating tissues"
"O=c1[nH]c(=O)n([C@H]2C[C@H](O)[C@@H](CO)O2)cc1I [[I-125] IUR, 5-iododeoxyuridine, reference compound]",,,27.86 ± 2.94,77.80 ± 7.45,incorporated in cells in a thymidine kinase dependent way,2.79*,,1.00,1.00,accumulation in proliferating tissues (% ID/g) [6]: accumulated in large amounts particularly in the thymus
